For 17 compounds, IC50 results are on record in US9914730B2, “Azaquinazoline inhibitors of Atypical protein Kinase C” (Ignyta, Inc., priority 2012, dated 2018).

In this test the target is T1, full-length human PKCι (Homo sapiens, UniProt P41743).
T1 construct: Recombinant, full-length human PKCι expressed in Sf21 insect cells is also commercially available; purchased; host or cells: Sf21 insect cells
T1 sequence (P41743 1-596): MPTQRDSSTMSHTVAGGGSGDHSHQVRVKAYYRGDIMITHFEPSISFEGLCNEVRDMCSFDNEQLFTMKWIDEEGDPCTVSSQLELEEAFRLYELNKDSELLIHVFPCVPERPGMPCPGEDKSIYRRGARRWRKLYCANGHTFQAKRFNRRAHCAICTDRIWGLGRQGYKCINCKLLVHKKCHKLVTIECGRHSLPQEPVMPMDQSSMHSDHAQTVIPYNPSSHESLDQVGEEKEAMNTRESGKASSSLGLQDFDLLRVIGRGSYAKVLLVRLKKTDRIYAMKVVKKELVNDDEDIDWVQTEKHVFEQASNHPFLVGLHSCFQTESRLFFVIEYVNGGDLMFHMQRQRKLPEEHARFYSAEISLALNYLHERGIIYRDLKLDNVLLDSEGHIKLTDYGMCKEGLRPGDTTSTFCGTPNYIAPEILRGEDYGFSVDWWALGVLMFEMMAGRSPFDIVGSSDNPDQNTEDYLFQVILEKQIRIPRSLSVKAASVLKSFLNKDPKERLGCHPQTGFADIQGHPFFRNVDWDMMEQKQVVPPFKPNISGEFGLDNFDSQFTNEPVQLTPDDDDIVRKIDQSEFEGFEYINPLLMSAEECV
In words: PKCι IC50 IMAP assay, full-length PKCι at 150 μM ATP. The class given is biochemical. Conditions: read-out: IC50 in IMAP assay against full length PKCi at 150 μM ATP. The text has this:
Assays are based on the ability of PKCι to phosphorylate a commercially available peptide substrate in vitro. The peptide substrate is FAM-PKCε pseudopeptide derived peptide, and comprises the amino acid sequence 5FAM-[…]-NH2. Recombinant, full-length human PKCι expressed in Sf21 insect cells is also commercially available. Recombinant, kinase-domain human PKCι is expressed and purified in-house.
The procedure below explains how dose response curves for inhibitors of PKCι are obtained. The screen described is for a 384 well format but the assay can be adapted to 1536 or other formats as required.
Compounds to be tested are dissolved in 100% DMSO. Compounds are diluted as required to give a final concentration of 4% DMSO (v/v) in the assay. 1 μl is plated into 384 well black low-binding flat bottomed assay plates which are used immediately. Dilutions and additions of compound to assay plates are carried out using Matrix WellMate® and Matrix PlateMate® Plus liquid handling systems.
On the day of the screen PKCι/substrate working solution, and ATP working solution, are prepared in buffer containing 20 mM tris-HCl pH7.5, 10 mM MgCl2, 0.01% Triton X100, 250 μM EGTA and 1 mM DTT. The final concentration of PKCι used varies depending on the batch of protein but is typically 15 pM. The final concentration of peptide substrate in the assay is 100 nM. ATP is used at a final concentration of 150 μM or 25 μM in the assays containing full-length or kinase-domain PKCι respectively, which corresponds to five times or equal to the KM^APP for ATP for each enzyme, respectively. The final buffer concentration in the assay is 18 mM tris-HCl pH7.5, 9 mM MgCl2, 0.009% Triton X100, 225 μM EGTA and 0.9 mM DTT. Relevant controls are included, namely no compound and no enzyme. 5 μl PKCι/substrate working solution at 30 pM and 200 nM, respectively, is added to the wells, followed by 4 μl ATP working solution at 375 μM or 62.5 μM for full-length or kinase-domain PKCι respectively, using a 16 channel Matrix pipette. The reaction is allowed to incubate for 60 minutes at room temperature, before the reaction is stopped and developed by the addition of 20 μl IMAP™ development reagent (Molecular Devices). IMAP development reagent consists of 0.25% (v/v) IMAP progressive binding reagent, 17% (v/v) IMAP progressive binding buffer A and 3% (v/v) IMAP progressive binding buffer B. The plates are then incubated for 2 hours at room temperature before being read using an appropriate plate reader, for example a Molecular Devices HT Analyst or a BMG Pherastar. Plates are read using a fluorescence polarisation protocol with excitation at 485 nm and emission at 530 nm, and dichroic mirror at 505 nm.
Percentage inhibition values are calculated from fluorescence polarisation values, using the no compound and no enzyme control values as 0% and 100% inhibition, respectively. IC50 determination is performed with ExcelFit software (IDBS) using curve fit 205. Z′ factors are determined for each plate tested and are all above 0.5.
A word on the IC50: it is the concentration needed to halve the response being measured. As for `O[C@@H]1CCN(c2nc(-c3ccnc4[nH]c(C(F)(F)F)cc34)nc3cncc(C4CC4)c23)C[C@H]1O` (racemic) [Example 1235, (+/−)-(trans)-1-[5-Cyclopropyl-2-(2-trifluoromethyl-1H-pyrrolo[2,3-b]pyridin-4-yl)-pyrido[3,4-d]pyrimidin-4-yl]-piperidine-3,4-diol], the IC50 fell in the range of 100 to 1000 nM.
Take `O[C@@H]1CN(c2nc(-c3ccnc(Nc4cccc(N5CCOCC5)c4)c3)nc3cncc(C4CC4)c23)CC[C@@H]1O` (racemic) [Example 2005, (+/−)-cis-1-{5-Cyclopropyl-2-[2-(3-morpholin-4-yl-phenylamino)-pyridin-4-yl]-pyrido[3,4-d]pyrimidin-4-yl}-piperidine-3,4-diol]: the IC50 was less than 100 nM.
Turning to `c1cc(-c2nc(N3CCNCC3)c3c(C4CC4)cncc3n2)c2cc([C@H]3C[C@H]4CC[C@@H]3C4)[nH]c2n1` (racemic) [Example 2079, (±)-2-((endo)-2-Bicyclo[2.2.1]hept-2-yl-1H-pyrrolo[2,3-b]pyridin-4-yl)-5-cyclopropyl-4-piperazin-1-yl-pyrido[3,4-d]pyrimidine], the IC50 is less than 100 nM.
As for `c1cc(-c2nc(N3CCNCC3)c3c(C4CC4)cncc3n2)cc(N[C@@H]2C[C@H]3CC[C@@H]2O3)n1` (racemic) [Example 2093, (±)-exo-[4-(5-Cyclopropyl-4-piperazin-1-yl-pyrido[3,4-d]pyrimidin-2-yl)-pyridin-2-yl]--7-oxa-bicyclo[2.2.1]hept-2-yl-amine], the IC50 is less than 100 nM.
The figure for `c1cc(-c2nc(N3CCNCC3)c3c(C4CC4)cncc3n2)c2cc([C@@H]3C[C@H]4CC[C@@H]3O4)[nH]c2n1` (racemic) [Example 2121, (±)-exo-5-Cyclopropyl-2-[2-(7-oxa-bicyclo[2.2.1]hept-2-yl)-1H-pyrrolo[2,3-b]pyridin-4-yl]-4-piperazin-1-yl-pyrido[3,4-d]pyrimidine] is less than 100 nM; for `c1cc(-c2nc(N3CCNCC3)c3c(C4CCC4)cncc3n2)c2cc([C@@H]3C[C@H]4CC[C@@H]3O4)[nH]c2n1` (racemic) [Example 2122, (±)-exo-5-Cyclobutyl-2-[2-(7-oxa-bicyclo[2.2.1]hept-2-yl)-1H-pyrrolo[2,3-b]pyridin-4-yl]-4-piperazin-1-yl-pyrido[3,4-d]pyrimidine] it is less than 100 nM; for `c1cc(-c2nc(N3CCNCC3)c3c(C4CCC4)cncc3n2)c2cc([C@H]3C[C@H]4CC[C@@H]3C4)[nH]c2n1` (racemic) [Example 2135, (±)-endo-2-(2-Bicyclo[2.2.1]hept-2-yl-1H-pyrroIo[2,3-b]pyridin-4-yl)-5-cyclobutyl-4-piperazin-1-yl-pyridor3,4-d]pyrimidine] it is less than 100 nM.
Regarding `N#Cc1cccc(Nc2cc(-c3nc(N4CC[C@H](O)[C@H](O)C4)c4c(C5CC5)cncc4n3)ccn2)n1` (relative stereo) [Example 745, 6-{4-[5-Cyclopropyl-4-((cis)-3,4-dihydroxy-piperidin-1-yl)-pyrido[3,4-d]pyrimidin-2-yl]-pyridin-2-ylamino}-pyridine-2-carbonitrile], the IC50 was in the range of 100 to 1000 nM.
As for `O[C@H]1c2ccccc2C[C@@H]1Nc1cc(-c2nc(N3CCNCC3)c3c(C4CC4)cncc3n2)ccn1` (relative stereo) [Example 2158, trans-2-[4-(5-Cyclopropyl-4-piperazin-1-yl-pyrido[3,4-d]pyrimidin-2-yl)-pyridin-2-ylamino]-indan-1-ol], the IC50 was less than 100 nM.
Regarding `COc1cncc2nc(-c3ccnc(Nc4ccccc4)c3)nc(N3CCC(O)C(O)C3)c12` (single isomer, unassigned) [Example 456, (3S,4S)-1-[5-Methoxy-2-(2-phenylamino-pyridin-4-yl)-pyrido[3,4-d]pyrimidin-4-yl]-piperidine-3,4-diol or (3R,4R)-1-[5-Methoxy-2-(2-phenylamino-pyridin-4-yl)-pyrido[3,4-d]pyrimidin-4-yl]-piperidine-3,4-diol], the IC50 was 100 to 1000 nM.
As to `COc1cncc2nc(-c3ccnc(Nc4ccccc4)c3)nc(N3CCC(O)C(O)C3)c12` (single isomer, unassigned) [Example 457, (3R,4R)-1-[5-Methoxy-2-(2-phenylamino-pyridin-4-yl)-pyrido[3,4-d]pyrimidin-4-yl]-piperidine-3,4-diol or (3S,4S)-1-[5-Methoxy-2-(2-phenylamino-pyridin-4-yl)-pyrido[3,4-d]pyrimidin-4-yl]-piperidine-3,4-diol], the IC50 lay within 100 to 1000 nM.
Regarding `COc1cncc2nc(-c3ccnc(Nc4ccccc4)c3)nc(N3CCC(O)C(O)C3)c12` (single isomer, unassigned) [Example 463, (3R,4S)-1-[5-Methoxy-2-(2-phenylamino-pyridin-4-yl)-pyrido[3,4-d]pyrimidin-4-yl]-piperidine-3,4-diol or (3S,4R)-1-[5-Methoxy-2-(2-phenylamino-pyridin-4-yl)-pyrido[3,4-d]pyrimidin-4-yl]-piperidine-3,4-diol], the IC50 was 1000 to 10000 nM.
In the case of `COc1cncc2nc(-c3ccnc(Nc4ccccc4)c3)nc(N3CCC(O)C(O)C3)c12` (single isomer, unassigned) [Example 464, (3S,4R)-1-[5-Methoxy-2-(2-phenylamino-pyridin-4-yl)-pyrido[3,4-d]pyrimidin-4-yl]-piperidine-3,4-diol or (3R,4S)-1-[5-Methoxy-2-(2-phenylamino-pyridin-4-yl)-pyrido[3,4-d]pyrimidin-4-yl]-piperidine-3,4-diol], the IC50 is 100 to 1000 nM.
With `CN1CCN(c2cccc(Nc3cc(-c4nc(N5CCC(O)C(O)C5)c5c(C6CC6)cncc5n4)ccn3)c2)CC1` (single isomer, unassigned) [Example 751, (3R,4S or 3R,4S)-1-(5-Cyclopropyl-2-{2-[3-(4-methyl-piperazin-1-yl)-phenylamino]-pyridin-4-yl}-pyrido[3,4-d]pyrimidin-4-yl)-piperidine-3,4-diol], the IC50 was less than 100 nM.
The figure for `CN1CCN(c2cccc(Nc3cc(-c4nc(N5CCC(O)C(O)C5)c5c(C6CC6)cncc5n4)ccn3)c2)CC1` (single isomer, unassigned) [Example 752, (3R,4S or 3R,4S)-1-(5-Cyclopropyl-2-{2-[3-(4-methyl-piperazin-1-yl)-phenylamino]-pyridin-4-yl}-pyrido[3,4-d]pyrimidin-4-yl)-piperidine-3,4-diol] is less than 100 nM; for `CN1CCN(c2cccc(Nc3cc(-c4nc(N5CCC(O)C(O)C5)c5c(C6CC6)cncc5n4)ccn3)c2)CC1` (single isomer, unassigned) [Example 753, (3S,4S or 3R,4R)-1-(5-Cyclopropyl-2-{2-[3-(4-methyl-piperazin-1-yl)-phenylamino]-pyridin-4-yl}-pyrido[3,4-d]pyrimidin-4-yl)-piperidine-3,4-diol] it is less than 100 nM; for `CN1CCN(c2cccc(Nc3cc(-c4nc(N5CCC(O)C(O)C5)c5c(C6CC6)cncc5n4)ccn3)c2)CC1` (single isomer, unassigned) [Example 754, (3S,4S or 3R,4R)-1-(5-Cyclopropyl-2-{2-[3-(4-methyl-piperazin-1-yl)-phenylamino]-pyridin-4-yl}-pyrido[3,4-d]pyrimidin-4-yl)-piperidine-3,4-diol] it is less than 100 nM.
